The results in this text go back to patent publication US12180193B2, “Accelerating fibrosarcoma protein degrading compounds and associated methods of use” (Arvinas Operations, Inc., priority 2020, dated 2024).

In one assay the target is T1, BRAF V600E (Homo sapiens, UniProt P15056, V600E).
T1 construct: expressed in transfected cells
The assay can be described thus: Cellular assay of target protein degradation, T-Rex 293 cells stably transfected with HA-BRAF_V600E (HA immunofluorescence, high content imaging). The format is cell-based. Particulars: T-Rex 293 HA-BRAF V600E; for DC50: half maximal degradation, read-out: BRaf V600E DC50; for Dmax: maximum degradation observed. The essentials:
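Doxycycline-induced (1 ng/mL) cells were treated 24 h at 37 °C with compound at 1 μM to 0.1 nM final in 0.1% DMSO. After fixation, permeabilization and blocking, anti-HA staining was imaged by high-content reading; DC50 and Dmax (% of control) were derived.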

The target of the next assay is T2, BRAF G466V (Homo sapiens, UniProt P15056, G466V).
T2 construct: expressed in transfected cells
T2 sequence (P15056 whole entry G466V): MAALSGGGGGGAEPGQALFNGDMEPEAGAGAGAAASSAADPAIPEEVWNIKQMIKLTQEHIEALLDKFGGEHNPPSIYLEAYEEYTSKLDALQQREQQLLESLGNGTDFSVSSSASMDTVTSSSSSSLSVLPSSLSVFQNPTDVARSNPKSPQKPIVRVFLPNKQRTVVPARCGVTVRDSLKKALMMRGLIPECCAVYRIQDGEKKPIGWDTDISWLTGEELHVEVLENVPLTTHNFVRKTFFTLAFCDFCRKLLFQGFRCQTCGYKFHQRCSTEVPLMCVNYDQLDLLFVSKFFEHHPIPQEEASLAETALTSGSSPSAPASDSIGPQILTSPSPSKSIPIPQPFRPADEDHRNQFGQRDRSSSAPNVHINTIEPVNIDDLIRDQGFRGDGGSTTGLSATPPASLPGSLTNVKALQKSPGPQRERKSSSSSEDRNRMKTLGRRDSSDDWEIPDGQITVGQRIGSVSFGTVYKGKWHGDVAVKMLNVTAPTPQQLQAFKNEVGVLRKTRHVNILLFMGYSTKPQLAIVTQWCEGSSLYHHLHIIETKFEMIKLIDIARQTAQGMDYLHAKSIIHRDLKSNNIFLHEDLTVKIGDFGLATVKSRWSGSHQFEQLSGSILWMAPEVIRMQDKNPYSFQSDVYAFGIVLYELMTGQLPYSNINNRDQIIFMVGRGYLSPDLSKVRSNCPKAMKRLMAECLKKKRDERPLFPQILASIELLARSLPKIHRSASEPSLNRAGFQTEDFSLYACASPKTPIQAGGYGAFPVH
As to the kind of experiment: Cellular assay of target protein degradation, T-Rex 293 cells stably transfected with HA-BRAF G466V (HA immunofluorescence, high content imaging). The format is cell-based. To be noted: T-Rex 293 HA-BRAF G466V; for DC50: half maximal degradation, read-out: BRaf G466V DC50; for Dmax: maximum degradation observed. The essentials:
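Cells expressing doxycycline-induced (0.75 ng/mL) HA-BRAF G466V were treated with compound at 30 nM to 3 pM in 0.1% DMSO for 24 hours at 37° C. After fixation and permeabilization, HA was immunostained and quantified by high content imaging to derive DC50 and Dmax.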

As a reminder, the DC50 is the midpoint of the concentration-degradation curve. By Dmax is commonly meant the largest share of the target that was removed. A lower Dmax goes with shallow degradation.

T1 sequence (P15056 whole entry V600E): as the sequence (P15056 whole entry G466V) above, with V466G, V600E counted along it

On to `O=C1CCC(N2Cc3cc(C4CCN(CCc5ccc(-c6cnc7[nH]cc(C(=O)c8c(F)ccc(NS(=O)(=O)N9CC[C@@H](F)C9)c8F)c7c6)cc5)[C@@H](CO)C4)ccc3C2=O)C(=O)N1` (stereo partly drawn) [Compound 150, (3R)-N-{3-[5-(4-{2-[(2R)-4-[2-(2,6-dioxopiperidin-3-yl)-1-oxo-2,3-dihydro-1H-isoindol-5-yl]-2-(hydroxymethyl)piperidin-1-yl]ethyl}phenyl)-1H-pyrrolo[2,3-b]pyridine-3-carbonyl]-2,4-difluorophenyl}-3-fluoropyrrolidine-1-sulfonamide], for which, at BRAF V600E, the 50% degradation concentration (DC50) was 50 to 500 nM and the maximal degradation (Dmax) lay within 35 to 70%. On BRAF G466V, the DC50 lay in the range of 1 to 10 nM and the greatest degradation seen (Dmax) is over 70%.
With `O=C1CCC(N2Cc3cc(CCOCCN4CCC(c5ccc(-c6cnc7[nH]cc(C(=O)c8c(F)ccc(NS(=O)(=O)N9CC[C@@H](F)C9)c8F)c7c6)cc5)CC4)ccc3C2=O)C(=O)N1` (stereo partly drawn) [Compound 151, (3R)-N-[3-(5-{4-[1-(2-{2-[2-(2,6-dioxopiperidin-3-yl)-1-oxo-2,3-dihydro-1H-isoindol-5-yl]ethoxy}ethyl)piperidin-4-yl]phenyl}-1H-pyrrolo[2,3-b]pyridine-3-carbonyl)-2,4-difluorophenyl]-3-fluoropyrrolidine-1-sulfonamide], at BRAF V600E, the DC50 lay within 50 to 500 nM and the Dmax lay in the range of 35 to 70%. Also, on BRAF G466V, the DC50 is 1 to 10 nM and the Dmax was over 70%.
In the case of `O=C1CCC(N2Cc3cc(N4CCN(CCc5ccc(-c6cnc7[nH]cc(C(=O)c8c(F)ccc(NS(=O)(=O)N9CC[C@@H](F)C9)c8F)c7c6)cc5)CC4)c(F)cc3C2=O)C(=O)N1` (stereo partly drawn) [Compound 152, (3R)-N-(3-{5-[4-(2-{4-[2-(2,6-dioxopiperidin-3-yl)-6-fluoro-1-oxo-2,3-dihydro-1H-isoindol-5-yl]piperazin-1-yl}ethyl)phenyl]-1H-pyrrolo[2,3-b]pyridine-3-carbonyl}-2,4-difluorophenyl)-3-fluoropyrrolidine-1-sulfonamide], at BRAF V600E, the DC50 was in the range of 5 to 50 nM and the maximal degradation (Dmax) was 35 to 70%. At BRAF G466V, the DC50 is 1 to 10 nM and the greatest degradation seen (Dmax) was over 70%.
In the case of `O=C1CCC(N2Cc3cc(N4CCC(CN5CCN(Cc6ncc(-c7cnc8[nH]cc(C(=O)c9c(F)ccc(NS(=O)(=O)N%10CC[C@@H](F)C%10)c9F)c8c7)cn6)CC5)CC4)ccc3C2=O)C(=O)N1` (stereo partly drawn) [Compound 153, (3R)-N-{3-[5-(2-{[4-({1-[2-(2,6-dioxopiperidin-3-yl)-1-oxo-2,3-dihydro-1H-isoindol-5-yl]piperidin-4-yl}methyl)piperazin-1-yl]methyl}pyrimidin-5-yl)-1H-pyrrolo[2,3-b]pyridine-3-carbonyl]-2,4-difluorophenyl}-3-fluoropyrrolidine-1-sulfonamide], on BRAF V600E, the half-maximal degradation concentration (DC50) was 50 to 500 nM and the Dmax is over 70%. For the same compound, at BRAF G466V, the DC50 was in the range of 1 to 10 nM and the maximal degradation (Dmax) is over 70%.
Take `O=C1CCC(N2Cc3cc(N4CCC(CN5CCC(Cc6ccc(-c7cnc8[nH]cc(C(=O)c9c(F)ccc(NS(=O)(=O)N%10CC[C@@H](F)C%10)c9F)c8c7)cc6)CC5)CC4)ccc3C2=O)C(=O)N1` (stereo partly drawn) [Compound 154, (3R)-N-{3-[5-(4-{[1-({1-[2-(2,6-dioxopiperidin-3-yl)-1-oxo-2,3-dihydro-1H-isoindol-5-yl]piperidin-4-yl}methyl)piperidin-4-yl]methyl}phenyl)-1H-pyrrolo[2,3-b]pyridine-3-carbonyl]-2,4-difluorophenyl}-3-fluoropyrrolidine-1-sulfonamide]: the 50% degradation concentration (DC50) at BRAF V600E is 5 to 50 nM; at BRAF G466V it was under 1 nM. Moreover, the maximal degradation (Dmax) on BRAF V600E is 35 to 70%; on BRAF G466V it was over 70%.
`CN(CC1CCN(c2ccc(-c3cnc4[nH]cc(C(=O)c5c(F)ccc(NS(=O)(=O)N6CC[C@@H](F)C6)c5F)c4c3)cc2)CC1)[C@H]1C[C@@H](Oc2ccc3c(c2)CN(C2CCC(=O)NC2=O)C3=O)C1` (stereo partly drawn) [Compound 155, (3R)-N-[2,4-difluoro-3-(5-{4-[4-({methyl[(1s,3s)-3-{[2-(2,6-dioxopiperidin-3-yl)-1-oxo-2,3-dihydro-1H-isoindol-5-yl]oxy}cyclobutyl]amino}methyl)piperidin-1-yl]phenyl}-1H-pyrrolo[2,3-b]pyridine-3-carbonyl)phenyl]-3-fluoropyrrolidine-1-sulfonamide]: at BRAF V600E, the 50% degradation concentration (DC50) lay within 5 to 50 nM and the Dmax was 35 to 70%. Moreover, on BRAF G466V, the DC50 was in the range of 1 to 10 nM and the Dmax was over 70%.
With `O=C1CCN(c2ccc(N3CCC(CN4CC5(C4)CN(c4ccc(-c6cnc7[nH]cc(C(=O)c8c(F)ccc(NS(=O)(=O)N9CC[C@@H](F)C9)c8F)c7c6)cc4)C5)CC3)cc2F)C(=O)N1` [Compound 156, (3R)-N-[3-(5-{4-[6-({1-[4-(2,4-dioxo-1,3-diazinan-1-yl)-3-fluorophenyl]piperidin-4-yl}methyl)-2,6-diazaspiro[3.3]heptan-2-yl]phenyl}-1H-pyrrolo[2,3-b]pyridine-3-carbonyl)-2,4-difluorophenyl]-3-fluoropyrrolidine-1-sulfonamide], at BRAF V600E, the DC50 fell in the range of 5 to 50 nM and the Dmax is 35 to 70%. Also, on BRAF G466V, the 50% degradation concentration (DC50) is 1 to 10 nM and the greatest degradation seen (Dmax) was over 70%.
For `O=C1CCC(N2Cc3cc(C4CCN(CC5CCN(c6ccc(-c7cnc8[nH]cc(C(=O)c9c(F)ccc(NS(=O)(=O)N%10CC[C@@H](F)C%10)c9F)c8c7)cc6)CC5)CC4)c(F)cc3C2=O)C(=O)N1` (stereo partly drawn) [Compound 157, (3R)-N-[3-(5-{4-[4-({4-[2-(2,6-dioxopiperidin-3-yl)-6-fluoro-1-oxo-2,3-dihydro-1H-isoindol-5-yl]piperidin-1-yl}methyl)piperidin-1-yl]phenyl}-1H-pyrrolo[2,3-b]pyridine-3-carbonyl)-2,4-difluorophenyl]-3-fluoropyrrolidine-1-sulfonamide], at BRAF V600E, the DC50 was 5 to 50 nM and the greatest degradation seen (Dmax) is 35 to 70%. Besides, on BRAF G466V, the DC50 is 1 to 10 nM and the Dmax is over 70%.
For `O=C1CCC(N2Cc3cc(N4CC5(CN(CCOc6ccc(-c7cnc8[nH]cc(C(=O)c9c(F)ccc(NS(=O)(=O)N%10CC[C@@H](F)C%10)c9F)c8c7)cn6)C5)C4)ccc3C2=O)C(=O)N1` (stereo partly drawn) [Compound 158, (3R)-N-(3-{5-[6-(2-{6-[2-(2,6-dioxopiperidin-3-yl)-1-oxo-2,3-dihydro-1H-isoindol-5-yl]-2,6-diazaspiro[3.3]heptan-2-yl}ethoxy)pyridin-3-yl]-1H-pyrrolo[2,3-b]pyridine-3-carbonyl}-2,4-difluorophenyl)-3-fluoropyrrolidine-1-sulfonamide] the same measures were 5 to 50 nM, 35 to 70%, 1 to 10 nM and over 70%.
For the compound `O=C1CCC(N2Cc3cc(N4CC(C5CN(c6ccc(-c7cnc8[nH]cc(C(=O)c9c(F)ccc(NS(=O)(=O)N%10CC[C@@H](F)C%10)c9F)c8c7)cc6)C5)C4)ccc3C2=O)C(=O)N1` (stereo partly drawn) [Compound 159, (3R)-N-{3-[5-(4-{1′-[2-(2,6-dioxopiperidin-3-yl)-1-oxo-2,3-dihydro-1H-isoindol-5-yl]-[3,3′-biazetidin]-1-yl}phenyl)-1H-pyrrolo[2,3-b]pyridine-3-carbonyl]-2,4-difluorophenyl}-3-fluoropyrrolidine-1-sulfonamide], the DC50 is over 500 nM at BRAF V600E and over 30 nM at BRAF G466V.
Take `O=C1CC[C@H](N2Cc3cc(C4CCN(CC5CCN(c6ccc(-c7cnc8[nH]cc(C(=O)c9c(F)ccc(NS(=O)(=O)N%10CC[C@@H](F)C%10)c9F)c8c7)cc6)CC5)CC4)ccc3C2=O)C(=O)N1` [Compound 160, (3R)—N-[3-[5-[4-[4-[[4-[2-[(3S)-2,6-dioxo-3-piperidyl]-1-oxo-isoindolin-5-yl]-1-piperidyl]methyl]-1-piperidyl]phenyl]-1H-pyrrolo[2,3-b]pyridine-3-carbonyl]-2,4-difluoro-phenyl]-3-fluoro-pyrrolidine-1-sulfonamide]: at BRAF V600E, the 50% degradation concentration (DC50) is under 5 nM and the maximal degradation (Dmax) was in the range of 35 to 70%. Moreover, at BRAF G466V, the DC50 is under 1 nM and the Dmax was over 70%.
Turning to `O=C1CC[C@@H](N2Cc3cc(C4CCN(CC5CCN(c6ccc(-c7cnc8[nH]cc(C(=O)c9c(F)ccc(NS(=O)(=O)N%10CC[C@@H](F)C%10)c9F)c8c7)cc6)CC5)CC4)ccc3C2=O)C(=O)N1` [Compound 161, (3R)-N-{3-[5-(4-{4-[(4-{2-[(3R)-2,6-dioxopiperidin-3-yl]-1-oxo-2,3-dihydro-1H-isoindol-5-yl}lpiperidin-1-yl)methyl]piperidin-1-yl}phenyl)-1H-pyrrolo[2,3-b]pyridine-3-carbonyl]-2,4-difluorophenyl}-3-fluoropyrrolidine-1-sulfonamide], at BRAF V600E, the DC50 lay within 5 to 50 nM and the Dmax was 35 to 70%. Further, at BRAF G466V, the DC50 was under 1 nM and the Dmax is over 70%.
Taken in the same sequence, the figures for `O=C1CCC(N2Cc3cc(N4CCC(CN5CCN(C6(c7ccc(-c8cnc9[nH]cc(C(=O)c%10c(F)ccc(NS(=O)(=O)N%11CC[C@@H](F)C%11)c%10F)c9c8)cc7)CC6)CC5)CC4)ccc3C2=O)C(=O)N1` (stereo partly drawn) [Compound 162, (3R)-N-{3-[5-(4-{1-[4-({1-[2-(2,6-dioxopiperidin-3-yl)-1-oxo-2,3-dihydro-1H-isoindol-5-yl]piperidin-4-yl}methyl)piperazin-1-yl]cyclopropyl}phenyl)-1H-pyrrolo[2,3-b]pyridine-3-carbonyl]-2,4-difluorophenyl}-3-fluoropyrrolidine-1-sulfonamide] were 50 to 500 nM, under 35%, 1 to 10 nM and 35 to 70%.
